The nature of the data set: X-ray diffraction (XRD) study of crystallinity / amorphous content. It is filed as physicochemical. Here is the method:
FIG. 1 presents the X-ray diffraction (XRD) patterns of three salbutamol samples.
In FIG. 1, the XRD patterns of the three salbutamol samples, which were each treated differently before analysis is shown as follows:
Also the initial mean particle size had been increased close to the upper acceptable limit.
Samples of some months ago micronized material were suspended in n-heptane and stirred 7 and 16 hours at 70° C., followed by drying.
Specific surface area and the energy for moisture absorption during transfer from 0 to 80% RH were metered: […]

These results are taken from US6616945B1, “Method for making a pharmaceutical formulation” (Leiras Oy, priority 1997, dated 2003).

On to salbutamol sulphate, for which the “change in amount of amorphous matter” value (micronized drug stored 10 hors at 40° C. and 50% RH) is on record as “clear decrease”. The “crystallinity by XRD” value (stirred 7 hours at 50° C. as n-heptane suspension) was “slightly less”, the “crystallinity by XRD” value (stirred 7 hours at 60° C. as n-heptane suspension) is on record as “practically total crystallinity” and the “crystallinity by XRD” value (stirred 7 hours at 70° C. as n-heptane suspension) is listed as “practically total crystallinity”. For the setting “untreated micronized sample”, the “amorphous content by XRD” value is reported as “a detectable amount of the drug was amorphous”.
